In patent US11185536B2, “Treatment of hearing loss by inhibition of casein kinase 1” (Massachusetts Eye & Ear Infirmary, priority 2015, dated 2021):
Entries after “also recorded” stand apart in the source; their conditions may differ.

Tests used:
[1] = system: Atoh1; test: Steady-state abundance of Atoh1 in human 293T cells; format: cell-based
[2] = system: Atoh1-Huwe1 binding; test: Co-immunoprecipitation of Atoh1-Huwe1 binding and Atoh1 ubiquitylation in HEK cells; format: cell-based; details: HEK cells co-transfected with HA-ubiquitin and FLAG-Atoh1, 4 hours treatment, co-IP
Description: HEK cells were co-transfected with HA-ubiquitin and FLAG-Atoh1 plasmids for 48 hours and treated with CK1 inhibitors (PF-670462 or D4476) and/or proteasome inhibitor MG132 (10 μM) for 4 hours. Immunoprecipitation was performed under denaturing conditions with anti-FLAG antibody. Endogenous Huwe1 was detected with an anti-Huwe1 antibody. Atoh1 was detected with anti-FLAG while ubiquitin was detected with anti-HA antibodies.
To explore the effect of CK1 on proteasomal degradation of Atoh1, we performed co-IP experiments.

[3] = system: Atoh1; test: Atoh1 protein in newborn organ of Corti explants (Western blotting, densitometry); format: cell-based, mice; details: newborn mouse organ of Corti explants, 10 μM, 72 hours
Description: Effect of CK1 inhibition on Atoh1 upregulation in the organ of Corti. Newborn organs of Corti (P1) were treated with the CK1 inhibitor D4476 (10 uM) for 72 hours. Atoh1 were quantified after Western blotting by densitometry and normalized to a loading control (beta-actin).

[4] = system: organ of Corti explants; test: Sox2 lineage tracing of supporting cells in organ of Corti explants (hair cell generation); format: cell-based, mice; design: double-labeled cells positive for Sox2 lineage and myosin VIIa: dose or concentration left out as unconfirmed
Description: Hair cell co-labeling with the lineage tag indicates derivation from a Sox2-positive cell (labeled with asterisks) and is thus evidence for newly generated hair cells by transdifferentiation of supporting cells. OHCs, at the bottom of the image, are delineated by a light gray bracket while IHCs, at the top of the image, are delineated by a white bracket. The scale bar is 25 μm.
(B, C) Effect of CK1 inhibition was significant.
Since CK1 inhibition stabilized Atoh1, we assessed its effect on hair cell generation in the cochlea. A Sox2-positive Cre-reporter strain crossed with CAG-TdTomato (Bramhall et al., Stem cell reports 2, 311-322 (2014)) was used to label all supporting cells for lineage tracing to follow supporting cells after CK1 inhibition.

[5] = system: Aminoglycoside-exposed organ of Corti explants; test: Sox2 lineage tracing in aminoglycoside-exposed organ of Corti explants (hair cell regeneration); format: cell-based
Description: Images of the basal turn of the lineage-traced organ of Corti damaged by gentamycin and treated with CK1 inhibitor D4476 for 72 hours. […] The scale bar is 25 μm.
Aminoglycoside-exposed organ of Corti explants^3 were treated with 10 μM D4476 for 72 hours and lineage traced.

[6] = system: Atoh1-specific E-box activity; test: Dual luciferase reporter assay with Atoh1 E-box associated motif (AtEAM) in HEK cells; format: cell-based; details: HEK cells with or without Atoh1 overexpression, overnight, normalized to Renilla luciferase
Description: Dual luciferase assay using a firefly reporter construct with an AtEAM motif in HEK cells. Experiments were done in triplicate, and data are presented as the mean±SEM after normalization to Renilla luciferase
DMSO or CK1 inhibitor D4476 was added to HEK with or without overexpression of Atoh1 for overnight to block the degradation of Atoh1 and therefore downstream Atoh1-specific E-box activity.
To further assess potential roles of CK1 in the control of Atoh1 signaling, we performed dual luciferase reporter assays using a firefly reporter construct with an Atoh1 E-box associated motif (AtEAM) and a Renilla control reporter. AtEAM is a ten […] Atoh1-specific binding motif that represents the site for the activity of Atoh1 in numerous downstream genes (Klisch et al., Proc Natl Acad Sci USA. 2011 February 22; 108(8):3288-93). Inhibition of CK1 by D4476 increased and overexpression of CK1 (specifically CK1δ and/or CK1ε) reduced Atoh1 downstream signaling (FIG. 7A).

[7] = organ of Corti explants, 10 μM, 72 hours, vs DMSO

| SMILES | steady-state abundance of Atoh1 [1] | Atoh1-Huwe1 binding [2] | ubiquitylation of Atoh1 [2] | Atoh1 protein in the cochlea based on densitometry [3] | double-labeled cells positive for Sox2 lineage and myosin VIIa ([4]; mid-base region of neonatal mouse cochlear tissue, 3 days after treatment) | number of reporter-labeled inner hair cells (IHCs) [4, 7] | number of reporter-labeled outer hair cells (OHCs) [4, 7] | hair cell generation in the organ of Corti ([4]; summary statement) | Sox2-lineage-tagged hair cells (co-labeled with myosin VIIa and TdTomato) after aminoglycoside damage ([5]; gentamycin-damaged explants, 10 μM, 72 hours) | hair cell regeneration after aminoglycoside damage ([5]; summary statement) | Atoh1 downstream signaling (Atoh1-specific E-box activity) [6] |
| --- | --- | --- | --- | --- | --- | --- | --- | --- | --- | --- | --- |
| COc1cc(OC)c(C=C2C(=O)Nc3ccccc32)c(OC)c1 [IC-261, 1,3-Dihydro-3-[(2,4,6-trimethoxyphenyl)methylene]-2H-indol-2-one] | increased the steady-state abundance of Atoh1 |  |  |  |  |  |  |  |  |  |  |
| Cl.Cl.Nc1nccc(-c2c(-c3ccc(F)cc3)ncn2C2CCCCC2)n1 [PF-670462, 4-[3-Cyclohexyl-5-(4-fluoro-phenyl)−3H-imidazol-4-yl]-pyrimidin-2-ylamine dihydrochloride] | increased the steady-state abundance of Atoh1 | diminished Atoh1-Huwe1 binding | diminished |  |  |  |  |  |  |  |  |
| NC(=O)c1ccc(-c2nc(-c3ccc4c(c3)OCCO4)c(-c3ccccn3)[nH]2)cc1 [D4476, 4-[4-(2,3-Dihydro-1,4-benzodioxin-6-yl)-5-(2-pyridinyl)-1H-imidazol-2-yl]benzamide] | increased the steady-state abundance of Atoh1 | diminished Atoh1-Huwe1 binding | diminished | caused stabilization of Atoh1 protein | found both in the inner hair cell and outer hair cell area | significantly increased; also recorded: significantly more | significantly increased; also recorded: significantly more | increase hair cell generation | resulted in an increase of Sox2-lineage-tagged hair cells; also recorded: indicated transdifferentiation of supporting cells | promote hair cell regeneration | increases Atoh1-specific E-box activity; also recorded: increased |
